{"source": "patent US20120009320A1", "about": "“COMPOSITIONS COMPRISING MONATIN AND CALCIUM” (priority 2009, published 2012)", "key": {"panelists": {"tested_on": "panelists", "assay": "Sweetness matching of monatin/salt combinations in water pH 7 and citric/citrate buffer pH 3, Examples 3-5", "assay_type": "in vivo, human", "protocol": "Test and reference solutions were prepared in the same medium. The SEVs of monatin/salt combinations at the appropriate concentrations were measured and compared to the SEV of monatin measured in the absence of any salts. […] Monatin-containing test samples and sucrose references were prepared in the same medium. Based on the previous observations that the sweetness of monatin relative to sucrose is sweeter at acidic pH, this study was carried out under two pH conditions; specifically, in water at pH 7-7.5 and in a citric/citrate buffer at pH 3.0. 2R,4R-Monatin mono potassium salt was used as an illustrative form of monatin for the experiments below. All monatin solutions were prepared ‘as is’, i.e., a 40 ppm monatin solution is 40 ppm of monatin mono potassium salt. A sweetness matching procedure was adopted. […] Each test sample was either monatin control or monatin plus designated salt at the stated concentration. Panelists were instructed to taste the test sample and then to identify the reference sample that matched the perceived sweetness of the test sample. If the sweetness of the test sample was judged to fall between that of two references, panelists were instructed to estimate sweetness to one decimal point. Panelists evaluated each sample in duplicate. Results for each test sample were averaged. […] The five samples were tested at pH 7 (water medium) and at pH 3 (citric/citrate buffer). […] The weight percent of calcium in the salt is different for each of the calcium salts. As such, the weight percent of the calcium salt in each sample is calculated in order to determine how much salt is needed to deliver 1200 ppm of calcium cations. […] The weight percent of the other calcium salts is similarly calculated based on the molar weight percent of calcium in the calcium salt. […] The samples were created at pH 3 and pH 7. The impact of other metal ions, specifically potassium and magnesium, (i.e. […] These ions were tested in the form and concentrations found in cow's milk."}, "[1]": {"settings": "Schiffman, Physiology & Behavior 68 (2000); cited from earlier work"}, "[2]": {"assay": "Sweetness of monatin stereoisomers relative to sucrose by weight (from SEV)", "assay_type": "in vivo", "settings": "general statement of the description", "protocol": "As used herein, “sucrose equivalency value”, or SEV, is a measure of sweetness. The SEV is the concentration (% w/v) of a sucrose solution that gives a degree of sweetness that is perceived to be the same degree of sweetness as that of a test sample. For purposes of this disclosure, the SEV of an aqueous or dairy solution containing monatin is determined through comparison of the monatin-containing solution to a series of sucrose containing solutions prepared in the same medium (see Example 1).\nMonatin-containing compositions are described herein as being “X” times as sweet as sucrose. The various stereoisomers of monatin are also described as being “X” times sweeter than sucrose. These values are determined from the SEV of the compositions."}, "[3]": {"settings": "salt (1450 ppm K+ or 170 ppm Mg2+) with 40 ppm monatin vs monatin only, pH 3.0"}, "[4]": {"settings": "salt (1450 ppm K+ or 170 ppm Mg2+) with 40 ppm monatin, pH 3.0, KCl solutions very salty, estimates difficult"}, "[5]": {"settings": "salt (1450 ppm K+ or 170 ppm Mg++) with 40 ppm monatin vs monatin only, pH 7.0"}, "[6]": {"settings": "salt (1450 ppm K+ or 170 ppm Mg++) with 40 ppm monatin, pH 7.0, KCl solutions very salty, estimates difficult"}, "[7]": {"settings": "200 ppm calcium (from calcium chloride), 40 ppm monatin, pH 3.0"}, "[8]": {"settings": "200 ppm calcium (from calcium chloride), 40 ppm monatin, pH 7.0"}, "[9]": {"settings": "400 ppm calcium (from calcium chloride), 40 ppm monatin, pH 3.0"}, "[10]": {"settings": "400 ppm calcium (from calcium chloride), 40 ppm monatin, pH 7.0"}, "[11]": {"settings": "800 ppm calcium (from calcium chloride), 40 ppm monatin, pH 3.0"}, "[12]": {"settings": "800 ppm calcium (from calcium chloride), 40 ppm monatin, pH 7.0"}, "[13]": {"settings": "1200 ppm calcium (from calcium chloride), 40 ppm monatin, pH 3.0"}, "[14]": {"settings": "1200 ppm calcium (from calcium chloride), 40 ppm monatin, pH 7.0"}, "[15]": {"settings": "calcium salt at 1200 ppm Ca2+ with 40 ppm monatin vs monatin only, pH 3.0"}, "[16]": {"settings": "calcium salt at 1200 ppm Ca2+ with 40 ppm monatin vs monatin only, pH 7.0"}, "[17]": {"settings": "calcium salt at 1200 ppm Ca2+ with 40 ppm monatin, pH 3.0"}, "[18]": {"settings": "calcium salt at 1200 ppm Ca2+ with 40 ppm monatin, pH 7.0"}}, "note": "Marks after values point to notes of the source that are not given here. Peptide text beside a SMILES is read from it."}
{"compound": "Magnesium gluconate", "values": [{"measurement": "Sweetness Enhancement", "setting": "panelists; [3]", "value": 6, "unit": "%"}, {"measurement": "Sucrose Equivalency Value", "setting": "panelists; [4]", "value": 9.1, "unit": "%"}, {"measurement": "Sweetness Enhancement", "setting": "panelists; [5]", "value": 9, "unit": "%"}, {"measurement": "Sucrose Equivalency Value", "setting": "panelists; [6]", "value": 9.2, "unit": "%"}]}
{"compound": "COC(=O)[C@H](Cc1ccccc1)NC(=O)[C@@H](N)CC(=O)O", "note": "[aspartame] (HELM PEPTIDE1{D.F.[CO[*:1]]}$$$$V2.0)", "values": [{"measurement": "effect of the addition of calcium ions on the sweetness intensity of the sweetener", "setting": "[1]", "value": "did not have an effect"}]}
{"compound": "[Cl-].[K+]", "note": "[Potassium chloride]", "values": [{"measurement": "Sweetness Enhancement", "setting": "panelists; [3]", "value": 7, "unit": "%"}, {"measurement": "Sucrose Equivalency Value", "setting": "panelists; [4]", "value": 9.2, "unit": "%"}, {"measurement": "Sweetness Enhancement", "setting": "panelists; [5]", "value": 4, "unit": "%"}, {"measurement": "Sucrose Equivalency Value", "setting": "panelists; [6]", "value": 8.7, "unit": "%"}]}
{"compound": "[Ca+2].[Cl-].[Cl-]", "note": "[Calcium chloride]", "values": [{"measurement": "Sucrose Equivalency Value", "setting": "panelists; [7]", "value": 9.5, "unit": "%"}, {"measurement": "Sweetness Enhancement", "setting": "panelists; [7]", "value": 10, "unit": "%"}, {"measurement": "Sucrose Equivalency Value", "setting": "panelists; [8]", "value": 10.0, "unit": "%"}, {"measurement": "Sweetness Enhancement", "setting": "panelists; [8]", "value": 19, "unit": "%"}, {"measurement": "Sucrose Equivalency Value", "setting": "panelists; [9]", "value": 10.0, "unit": "%"}, {"measurement": "Sweetness Enhancement", "setting": "panelists; [9]", "value": 16, "unit": "%"}, {"measurement": "Sucrose Equivalency Value", "setting": "panelists; [10]", "value": 10.2, "unit": "%"}, {"measurement": "Sweetness Enhancement", "setting": "panelists; [10]", "value": 21, "unit": "%"}, {"measurement": "Sucrose Equivalency Value", "setting": "panelists; [11]", "value": 10.2, "unit": "%"}, {"measurement": "Sweetness Enhancement", "setting": "panelists; [11]", "value": 19, "unit": "%"}, {"measurement": "Sucrose Equivalency Value", "setting": "panelists; [12]", "value": 10.2, "unit": "%"}, {"measurement": "Sweetness Enhancement", "setting": "panelists; [12]", "value": 21, "unit": "%"}, {"measurement": "Sucrose Equivalency Value", "setting": "panelists; [13]", "value": 10.3, "unit": "%"}, {"measurement": "Sweetness Enhancement", "setting": "panelists; [13]", "value": 20, "unit": "%"}, {"measurement": "Sucrose Equivalency Value", "setting": "panelists; [14]", "value": 10.1, "unit": "%"}, {"measurement": "Sweetness Enhancement", "setting": "panelists; [14]", "value": 20, "unit": "%"}, {"measurement": "Sweetness Enhancement", "setting": "panelists; 1600 ppm calcium (from calcium chloride), 40 ppm monatin, pH 3.0", "value": 19, "unit": "%"}, {"measurement": "Sucrose Equivalency Value", "setting": "panelists; 1600 ppm calcium (from calcium chloride), 40 ppm monatin, pH 3.0, solutions very salty, SEV estimate very difficult", "value": "10.2** %"}, {"measurement": "Sweetness Enhancement", "setting": "panelists; 1600 ppm calcium (from calcium chloride), 40 ppm monatin, pH 7.0", "value": 21, "unit": "%"}, {"measurement": "Sucrose Equivalency Value", "setting": "panelists; 1600 ppm calcium (from calcium chloride), 40 ppm monatin, pH 7.0, solutions very salty, SEV estimate very difficult", "value": "10.2** %"}, {"measurement": "Sweetness Enhancement", "setting": "panelists; [15]", "value": 20, "unit": "%"}, {"measurement": "Sweetness Enhancement", "setting": "panelists; [16]", "value": 20, "unit": "%"}, {"measurement": "Sucrose Equivalency Value", "setting": "panelists; [17]", "value": 10.3, "unit": "%"}, {"measurement": "Sucrose Equivalency Value", "setting": "panelists; [18]", "value": 10.1, "unit": "%"}]}
{"compound": "OC[C@H]1O[C@@](CO)(O[C@H]2O[C@H](CO)[C@@H](O)[C@H](O)[C@H]2O)[C@@H](O)[C@@H]1O", "note": "[sucrose]", "values": [{"measurement": "effect of the addition of calcium ions on the sweetness intensity of the sweetener", "setting": "[1]", "value": "did not have an effect"}]}
{"compound": "CC(O)C(=O)[O-].CC(O)C(=O)[O-].[Ca+2]", "note": "(stereo not drawn) [Calcium lactate]", "values": [{"measurement": "Sweetness Enhancement", "setting": "panelists; [15]", "value": 10, "unit": "%"}, {"measurement": "Sweetness Enhancement", "setting": "panelists; [16]", "value": 13, "unit": "%"}, {"measurement": "Sucrose Equivalency Value", "setting": "panelists; [17]", "value": 9.5, "unit": "%"}, {"measurement": "Sucrose Equivalency Value", "setting": "panelists; [18]", "value": 9.5, "unit": "%"}]}
{"compound": "Calcium gluconate", "values": [{"measurement": "Sweetness Enhancement", "setting": "panelists; [15]", "value": 7, "unit": "%"}, {"measurement": "Sweetness Enhancement", "setting": "panelists; [16]", "value": 13, "unit": "%"}, {"measurement": "Sucrose Equivalency Value", "setting": "panelists; [17]", "value": 9.2, "unit": "%"}, {"measurement": "Sucrose Equivalency Value", "setting": "panelists; [18]", "value": 9.5, "unit": "%"}]}
{"compound": "calcium", "values": [{"measurement": "Sweetness Enhancement", "setting": "panelists; [7]", "value": 10, "unit": "%"}, {"measurement": "Sweetness Enhancement", "setting": "panelists; [8]", "value": 19, "unit": "%"}]}
{"compound": "NC(CC(O)(Cc1c[nH]c2ccccc12)C(=O)O)C(=O)O", "note": "(stereo not drawn) [S,S stereoisomer of monatin, 4-amino-2-hydroxy-2-(1H-indol-3-ylmethyl)-pentanedioic acid]", "values": [{"measurement": "times sweeter than sucrose by weight", "setting": "[2]", "value": "50-200 times"}]}
